Values joined by “and” are separate entries in the source; they are usually repeats but may differ in a detail not shown here. Identical values can stand only once. Inconclusive results and toxic doses are left out. Peptide text beside a SMILES is read from it. * marks the point of attachment. Cbz = O=C(OCc1ccccc1)*

The test system of this assay is P388 leukemia ip, CD2F1 mice, survival T/C. Put plainly: NCI In Vivo Anticancer Drug Screen. Data for tumor model P388 Leukemia (intraperitoneal) in CD2F1 (CDF1) mice. The following applies: endpoint: median survival time, higher = longer survival. The procedure, abridged: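 Mice carrying the transplanted tumor received test compound or vehicle. Survival was recorded in each group, and the value is the treated-group measurement divided by that of the vehicle-treated control group.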

[1] abbreviates: dose: 50.0 mg/kg/injection, schedule: Q01DX005 (ip), vehicle: Klucel (hydroxypropylcellulose) (HPC).
The mark [2] stands for this setting: dose: 100.0 mg/kg/injection, schedule: Q01DX005 (ip), vehicle: Klucel (hydroxypropylcellulose) (HPC).
Setting [3] is: dose: 200.0 mg/kg/injection, schedule: Q01DX005 (ip), vehicle: Klucel (hydroxypropylcellulose) (HPC).
The mark [4] stands for this setting: dose: 50.0 mg/kg/injection, schedule: Q01DX009 (ip), vehicle: saline.
[5] abbreviates: dose: 100.0 mg/kg/injection, schedule: Q01DX009 (ip), vehicle: saline.
Where [6] appears, read: dose: 200.0 mg/kg/injection, schedule: Q01DX009 (ip), vehicle: saline.
[7] abbreviates: dose: 100.0 mg/kg/injection, schedule: Q04DX003 (ip), vehicle: saline with Tween-80.
Where [8] appears, read: dose: 50.0 mg/kg/injection, schedule: Q01DX005 (ip), vehicle: saline with Tween-80.
The mark [9] stands for this setting: dose: 100.0 mg/kg/injection, schedule: Q01DX005 (ip), vehicle: saline with Tween-80.
Where [10] appears, read: dose: 200.0 mg/kg/injection, schedule: Q01DX005 (ip), vehicle: saline with Tween-80.

For the molecule `COc1cc(CNc2cccc(F)c2)cc(OC)c1OC`, the T/C was 100 % of control under setting [1], 110 % of control under setting [2] and 89 % of control under setting [3].

In the case of `CCOC1N(c2ccccc2)CN(C2CCCCC2)CC1(C)C` (centres undefined), the T/C (dose: 6.25 mg/kg/injection, schedule: Q01DX009 (ip), vehicle: saline with Tween-80) is 100 % of control; the T/C (dose: 12.5 mg/kg/injection, schedule: Q01DX009 (ip), vehicle: saline with Tween-80) is 98 % of control; the T/C (dose: 25.0 mg/kg/injection, schedule: Q01DX009 (ip), vehicle: saline with Tween-80) is 102 % of control.

`Cc1nc(Nc2c(C)cccc2C)c2c(C)c(Cc3ccccc3)[nH]c2n1`: the T/C under setting [1] is 89 % of control, the T/C under setting [2] is 89 % of control and the T/C under setting [3] is 104 % of control.

As for `CS(=O)(=O)OCCOS(C)(=O)=O`, the T/C is 111 % of control under setting [4]; 92 % of control (dose: 100.0 mg/kg/injection, schedule: Q01DX009 (ip), vehicle: Klucel (hydroxypropylcellulose) (HPC)); 123 % of control under setting [5]; 163 % of control (dose: 400.0 mg/kg/injection, schedule: Q01DX009 (ip), vehicle: saline).

Take `N#Cc1cc(Br)ccc1[N+](=O)[O-]`: the T/C (dose: 6.25 mg/kg/injection, schedule: Q01DX009 (ip), vehicle: saline) was 103 % of control; the T/C (dose: 12.5 mg/kg/injection, schedule: Q01DX009 (ip), vehicle: saline) was 101 % of control; the T/C under setting [4] was 94 % of control; the T/C under setting [5] is 90 % of control; the T/C under setting [6] was 99 % of control.

Regarding `COc1cc2c(cc1OC)C13CCN4CC5=CCOC6CC(=O)N2C1C6C5CC43` (centres undefined) (tested in a mixture with another compound), the T/C runs as follows: (dose: 25.0 mg/kg/injection, schedule: Q04DX003 (ip), vehicle: saline with Tween-80) 100 % of control; (dose: 50.0 mg/kg/injection, schedule: Q01DX009 (ip), vehicle: saline with Tween-80) 104 % of control; (dose: 50.0 mg/kg/injection, schedule: Q04DX003 (ip), vehicle: saline with Tween-80) 104 % of control; (dose: 100.0 mg/kg/injection, schedule: Q01DX009 (ip), vehicle: saline with Tween-80) 106 % of control; under setting [7], 104 % of control.

`CC(C)(O)C1CCC2(C)CC(=O)NCCN12` (centres undefined): the T/C (dose: 25.0 mg/kg/injection, schedule: Q01DX001 (ip), vehicle: Klucel (hydroxypropylcellulose) (HPC)) was 112 % of control and the T/C (dose: 50.0 mg/kg/injection, schedule: Q01DX001 (ip), vehicle: Klucel (hydroxypropylcellulose) (HPC)) was 106 % of control.

`CCN(CC)CC.COC(=O)NC#N.[CH-]1CCCCC1.[CH-]1CCCCC1.[CH-]1CCCCC1.[Cl-].[Sn+4]`: the T/C runs as follows: (dose: 3.12 mg/kg/injection, schedule: Q01DX005 (ip), vehicle: saline with Tween-80) 104 % of control; (dose: 6.25 mg/kg/injection, schedule: Q01DX005 (ip), vehicle: saline with Tween-80) 98 % of control.

On to `COc1ccccc1OCC(Cn1c(=O)nc(-c2ccccc2)c2cc(Cl)ccc21)OC(N)=O` (centres undefined), for which the T/C is, setting by setting: under setting [8], 104 % of control; under setting [9], 100 % of control; under setting [10], 95 % of control.

Turning to `O=C(O)C1CSC(c2ccccc2O)N1` (centres undefined), the T/C is 90 % of control under setting [4], 96 % of control under setting [5] and 90 % of control under setting [6].

For the molecule `CC(C)(C)SC(=O)CCl`, the T/C under setting [7] was 116 % of control and the T/C (dose: 200.0 mg/kg/injection, schedule: Q04DX003 (ip), vehicle: saline with Tween-80) is 89 % of control.

Regarding `O=C(S)CC1(O)CCCCC1`, the T/C reads like this: (dose: 100.0 mg/kg/injection, schedule: Q04DX003 (ip), vehicle: Klucel (hydroxypropylcellulose) (HPC)) 99 % of control; (dose: 200.0 mg/kg/injection, schedule: Q04DX003 (ip), vehicle: Klucel (hydroxypropylcellulose) (HPC)) 100 % of control; (dose: 400.0 mg/kg/injection, schedule: Q04DX003 (ip), vehicle: Klucel (hydroxypropylcellulose) (HPC)) 96 % of control.

With `ClC1(Cl)CC1[Se]c1ccccc1` (centres undefined), the T/C is, setting by setting: under setting [4], 100 % of control; under setting [5], 102 % of control; under setting [6], 99 % of control.

With `Cc1nnc2sc3c(Cl)c4nn5c(C)nnc5sc4c(Cl)c3nn12`, the T/C runs as follows: (dose: 0.78 mg/kg/injection, schedule: Q01DX009 (ip), vehicle: saline with Tween-80) 94 % of control; (dose: 1.56 mg/kg/injection, schedule: Q01DX009 (ip), vehicle: saline with Tween-80) 97 % of control; (dose: 3.13 mg/kg/injection, schedule: Q01DX009 (ip), vehicle: saline with Tween-80) 92 % of control.

Take `Nc1n[nH][nH]c1=O`: the T/C runs as follows: (dose: 60.0 mg/kg/injection, schedule: Q01DX005 (ip), vehicle: saline) 100 % of control; (dose: 120.0 mg/kg/injection, schedule: Q01DX005 (ip), vehicle: saline) 116 % of control; (dose: 240.0 mg/kg/injection, schedule: Q01DX005 (ip), vehicle: saline) 100 % of control.

As for `[Cl][Rh][Cl].[NH-]c1nc2c(ccc3ccccc32)s1.[NH-]c1nc2c(ccc3ccccc32)s1.[NH-]c1nc2c(ccc3ccccc32)s1.[NH-]c1nc2c(ccc3ccccc32)s1`, the T/C is, setting by setting: (dose: 100.0 mg/kg/injection, schedule: Q04DX003 (ip), vehicle: saline) 108 % of control; (dose: 200.0 mg/kg/injection, schedule: Q04DX003 (ip), vehicle: saline) 109 % of control; (dose: 400.0 mg/kg/injection, schedule: Q04DX003 (ip), vehicle: saline) 105 % of control.

`C[Si]1(C)O[Si](C)(C)O[Si](C)(C)O[Si](C)(C)O1`: the T/C under setting [1] is 100 % of control, the T/C under setting [2] is 97 % of control and the T/C under setting [3] is 97 % of control.

`COc1ccc2ncc(C)c(CO)c2c1`: the T/C was 116 % of control under setting [8], 102 % of control under setting [9] and 98 % of control under setting [10].

`COc1ccccc1P(=O)(CCP(=O)(c1ccccc1)c1ccccc1OC)c1ccccc1` (centres undefined): the T/C runs as follows: under setting [1], 103 % of control; under setting [2], 97 % of control; under setting [3], 91 % of control.

`CCC(C)C(NC(=O)C(Cc1ccc(O)cc1)NC(=O)OCc1ccccc1)C(=O)OC` (stereo not drawn) (Cbz-Tyr-Ile-OMe; configuration not given here): the T/C is 106 % of control under setting [8], 92 % of control under setting [9] and 97 % of control under setting [10].

In the case of `N#CSCc1ccccc1Cl`, the T/C (dose: 2.5 mg/kg/injection, schedule: Q01DX009 (ip), vehicle: saline with Tween-80) is 104 % of control; the T/C (dose: 5.0 mg/kg/injection, schedule: Q01DX009 (ip), vehicle: saline with Tween-80) is 104 % of control; the T/C (dose: 10.0 mg/kg/injection, schedule: Q01DX009 (ip), vehicle: saline with Tween-80) was 90 % of control.

With `CNC(=O)OCc1cn(-c2ccc(Cl)c(Cl)c2)nc1COC(=O)NC`, the T/C reads like this: (dose: 0.05 mg/kg/injection, schedule: Q01DX009 (ip), vehicle: distilled water + Tween-80) 103 % of control; (dose: 0.1 mg/kg/injection, schedule: Q01DX009 (ip), vehicle: distilled water + Tween-80) 86 % of control; (dose: 0.2 mg/kg/injection, schedule: Q01DX009 (ip), vehicle: distilled water + Tween-80) 94 % of control; (dose: 0.4 mg/kg/injection, schedule: Q01DX009 (ip), vehicle: distilled water + Tween-80) 99 % of control; (dose: 3.12 mg/kg/injection, schedule: Q01DX009 (ip), vehicle: distilled water + Tween-80) 88 % of control; (dose: 25.0 mg/kg/injection, schedule: Q01DX009 (ip), vehicle: distilled water + Tween-80) 89 % of control. The T/C reads like this: (dose: 50.0 mg/kg/injection, schedule: Q01DX009 (ip), vehicle: distilled water + Tween-80) 92 % of control; (dose: 100.0 mg/kg/injection, schedule: Q01DX009 (ip), vehicle: distilled water + Tween-80) 90 % of control.

Regarding `COc1cc2c(c(OC)c1OC)-c1ccc(O)c(=O)cc1C(NC(C)=O)CC2` (centres undefined), the T/C is, setting by setting: (dose: 2.5 mg/kg/injection, schedule: Q01DX009 (ip), vehicle: Klucel (hydroxypropylcellulose) (HPC)) 100 % of control; (dose: 5.0 mg/kg/injection, schedule: Q01DX009 (ip), vehicle: Klucel (hydroxypropylcellulose) (HPC)) 99 % of control; (dose: 10.0 mg/kg/injection, schedule: Q01DX009 (ip), vehicle: Klucel (hydroxypropylcellulose) (HPC)) 100 % of control and 102 % of control; (dose: 20.0 mg/kg/injection, schedule: Q01DX009 (ip), vehicle: Klucel (hydroxypropylcellulose) (HPC)) 107 % of control and 115 % of control; (dose: 40.0 mg/kg/injection, schedule: Q01DX009 (ip), vehicle: Klucel (hydroxypropylcellulose) (HPC)) 108 % of control; (dose: 80.0 mg/kg/injection, schedule: Q01DX009 (ip), vehicle: Klucel (hydroxypropylcellulose) (HPC)) 110 % of control.

The values above are taken from PubChem BioAssay AID330 (DTP/NCI, 2004).
